What was measured:
Type in all cases: biochemical
[1] = target: SIK3 (Homo sapiens, UniProt Q9Y2K2); assay: Enzymatic activity assay SIK3, RapidFire mass spectrometry (phosphorylation of CHK-peptide); details: RapidFire MS, inhibition of SIK3; read-out: SIK3 RF IC50
Outline: (§1)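 Human SIK1/2/3, 5/0.5/1.5 nM; 12.5 mM HEPES pH 7.0, 10 mM Mg acetate, 0.005% BSA. 30 min cpd pre-inc, + CHK-peptide (10 μM soln) + ATP (100 μM soln), 45 min RT. Formic acid stop; RF-MS phospho ratio; IC50.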

[2] = target: SIK1 (Homo sapiens, UniProt P57059); assay: Enzymatic activity assay SIK1, RapidFire mass spectrometry (phosphorylation of CHK-peptide); details: RapidFire MS, inhibition of SIK1; read-out: SIK1 RF IC50
Outline: as §1

[3] = target: SIK2 (Homo sapiens, UniProt Q9H0K1); assay: Enzymatic activity assay SIK2, RapidFire mass spectrometry (phosphorylation of CHK-peptide); details: RapidFire MS, inhibition of SIK2; read-out: SIK2 RF IC50
Outline: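 Read-out is the summed phospho-species fraction of CHK-peptide by RapidFire mass spectrometry, normalized between DMSO and 1 μM YKL-05-099. The reaction used 0.5 nM SIK2, 100 μM ATP and 10 μM peptide solutions in HEPES pH 7.0/10 mM magnesium acetate for 45 min at ambient temperature.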

Chain of SIK2 (Q9H0K1 whole entry): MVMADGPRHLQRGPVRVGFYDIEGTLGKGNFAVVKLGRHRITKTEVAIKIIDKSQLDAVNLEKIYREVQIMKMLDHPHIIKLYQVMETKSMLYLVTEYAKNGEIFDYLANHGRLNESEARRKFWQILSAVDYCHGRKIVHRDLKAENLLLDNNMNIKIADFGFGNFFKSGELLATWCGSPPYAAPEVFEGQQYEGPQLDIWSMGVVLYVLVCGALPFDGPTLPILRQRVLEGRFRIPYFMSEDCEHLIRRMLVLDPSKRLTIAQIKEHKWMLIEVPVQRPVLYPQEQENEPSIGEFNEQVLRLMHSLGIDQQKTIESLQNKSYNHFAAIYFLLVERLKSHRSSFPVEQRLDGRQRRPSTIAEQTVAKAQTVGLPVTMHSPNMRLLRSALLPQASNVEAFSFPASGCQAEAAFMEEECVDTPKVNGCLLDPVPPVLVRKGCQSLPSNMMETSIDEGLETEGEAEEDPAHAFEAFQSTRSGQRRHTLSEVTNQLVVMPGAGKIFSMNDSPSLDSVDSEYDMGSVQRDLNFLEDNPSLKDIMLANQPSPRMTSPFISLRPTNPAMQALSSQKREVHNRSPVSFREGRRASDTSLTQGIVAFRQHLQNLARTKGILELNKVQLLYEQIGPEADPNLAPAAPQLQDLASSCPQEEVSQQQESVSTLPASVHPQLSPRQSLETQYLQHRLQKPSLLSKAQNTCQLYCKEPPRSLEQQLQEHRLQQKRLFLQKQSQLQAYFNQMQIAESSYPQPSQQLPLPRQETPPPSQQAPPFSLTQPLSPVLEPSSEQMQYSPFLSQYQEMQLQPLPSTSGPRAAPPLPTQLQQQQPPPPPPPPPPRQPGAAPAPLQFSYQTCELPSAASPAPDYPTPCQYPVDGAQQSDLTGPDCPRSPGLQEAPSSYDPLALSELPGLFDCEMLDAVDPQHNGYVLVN
Chain of SIK1 (P57059 whole entry): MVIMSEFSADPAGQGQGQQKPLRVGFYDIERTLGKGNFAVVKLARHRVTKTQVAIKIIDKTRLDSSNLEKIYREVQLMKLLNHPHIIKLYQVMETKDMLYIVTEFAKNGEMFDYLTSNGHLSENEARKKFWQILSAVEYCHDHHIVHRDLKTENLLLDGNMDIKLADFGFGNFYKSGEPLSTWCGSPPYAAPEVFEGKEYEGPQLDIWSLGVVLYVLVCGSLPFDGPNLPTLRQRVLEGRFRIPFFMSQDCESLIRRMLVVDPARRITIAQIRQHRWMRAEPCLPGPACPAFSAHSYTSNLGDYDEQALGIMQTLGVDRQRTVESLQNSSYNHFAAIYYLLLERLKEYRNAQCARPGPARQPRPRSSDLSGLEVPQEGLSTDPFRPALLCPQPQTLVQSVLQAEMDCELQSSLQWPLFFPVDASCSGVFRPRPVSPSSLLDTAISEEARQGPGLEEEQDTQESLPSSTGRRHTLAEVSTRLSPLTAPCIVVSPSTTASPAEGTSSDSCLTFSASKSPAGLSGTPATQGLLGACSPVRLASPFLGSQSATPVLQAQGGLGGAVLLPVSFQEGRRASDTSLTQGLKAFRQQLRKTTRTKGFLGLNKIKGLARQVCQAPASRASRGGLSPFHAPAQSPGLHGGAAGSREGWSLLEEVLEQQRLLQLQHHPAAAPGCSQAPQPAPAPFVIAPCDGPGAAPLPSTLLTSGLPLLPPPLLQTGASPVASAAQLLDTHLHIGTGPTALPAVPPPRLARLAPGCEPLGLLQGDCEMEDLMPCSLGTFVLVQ
Chain of SIK3 (Q9Y2K2 whole entry): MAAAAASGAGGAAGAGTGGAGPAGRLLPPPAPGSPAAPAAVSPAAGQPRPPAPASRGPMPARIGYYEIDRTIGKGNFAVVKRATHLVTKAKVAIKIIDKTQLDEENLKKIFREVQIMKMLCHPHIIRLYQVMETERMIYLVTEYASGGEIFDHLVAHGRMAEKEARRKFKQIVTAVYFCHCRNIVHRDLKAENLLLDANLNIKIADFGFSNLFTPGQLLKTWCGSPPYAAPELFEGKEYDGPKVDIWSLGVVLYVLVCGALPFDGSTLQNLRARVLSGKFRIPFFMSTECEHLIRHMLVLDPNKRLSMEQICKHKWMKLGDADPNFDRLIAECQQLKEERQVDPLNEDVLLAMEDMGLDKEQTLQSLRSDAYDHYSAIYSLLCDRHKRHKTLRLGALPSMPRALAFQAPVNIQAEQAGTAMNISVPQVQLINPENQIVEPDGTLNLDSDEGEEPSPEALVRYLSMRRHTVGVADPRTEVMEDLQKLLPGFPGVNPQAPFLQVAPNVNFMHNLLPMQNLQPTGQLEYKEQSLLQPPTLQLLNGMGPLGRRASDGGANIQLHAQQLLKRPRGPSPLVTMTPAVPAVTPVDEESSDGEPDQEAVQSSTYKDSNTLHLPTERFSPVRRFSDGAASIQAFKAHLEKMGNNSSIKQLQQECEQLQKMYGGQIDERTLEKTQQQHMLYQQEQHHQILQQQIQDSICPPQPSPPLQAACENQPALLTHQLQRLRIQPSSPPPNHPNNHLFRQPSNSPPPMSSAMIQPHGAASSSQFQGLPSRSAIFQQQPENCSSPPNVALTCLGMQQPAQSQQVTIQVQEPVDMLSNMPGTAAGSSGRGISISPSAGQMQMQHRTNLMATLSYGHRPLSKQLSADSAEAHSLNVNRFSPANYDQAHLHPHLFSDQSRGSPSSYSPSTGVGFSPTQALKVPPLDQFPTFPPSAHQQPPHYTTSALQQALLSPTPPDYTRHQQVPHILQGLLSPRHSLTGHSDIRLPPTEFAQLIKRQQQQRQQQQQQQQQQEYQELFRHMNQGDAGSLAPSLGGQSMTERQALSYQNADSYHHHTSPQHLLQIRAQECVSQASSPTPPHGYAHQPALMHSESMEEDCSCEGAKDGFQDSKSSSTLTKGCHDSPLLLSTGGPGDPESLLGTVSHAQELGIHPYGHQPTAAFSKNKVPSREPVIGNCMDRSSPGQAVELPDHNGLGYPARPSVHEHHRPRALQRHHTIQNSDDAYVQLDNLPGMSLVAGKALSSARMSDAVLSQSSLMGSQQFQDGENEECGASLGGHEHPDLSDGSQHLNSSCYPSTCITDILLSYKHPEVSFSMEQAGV

SMILES | IC50 [1] [nM] | IC50 [2] [nM] | IC50 [3] [nM]
Cc1cc(OC(F)F)nn1-c1nc(-n2cnc3cc(Nc4cccnn4)c(F)cc32)ccc1[C@H](C)O [Example 373, (1S)-1-[2-[3-(difluoromethoxy)-5-methyl-pyrazol-1-yl]-6-[6-fluoro-5-(pyridazin-3-ylamino)benzimidazol-1-yl]-3-pyridyl]ethanol] | 0.7 | 184 | 0.8
Cc1ccc(Nc2cc3ncn(-c4ccc([C@H](C)O)c(-n5nc(OC(F)F)cc5C)n4)c3cc2F)nn1 [Example 374, (1S)-1-[2-[3-(difluoromethoxy)-5-methyl-pyrazol-1-yl]-6-[6-fluoro-5-[(6-methylpyridazin-3-yl)amino]benzimidazol-1-yl]-3-pyridyl]ethanol] | 0.4 | 88 | 0.3
Cc1ccc(Nc2cc3ncn(-c4ccc([C@@H](C)O)c(-n5nc(OC(F)F)cc5C)n4)c3cc2F)nn1 [Example 375, (1R)-1-[2-[3-(difluoromethoxy)-5-methyl-pyrazol-1-yl]-6-[6-fluoro-5-[(6-methylpyridazin-3-yl)amino]benzimidazol-1-yl]-3-pyridyl]ethanol] | 8.7 | 998 | 6
Cc1nnc(Nc2cc3c(cc2F)ncn3-c2ccc(C(C)O)c(-n3nc(C#N)cc3C)n2)o1 (stereo not drawn) [Example 376, 1-[6-[5-fluoro-6-[(5-methyl-1,3,4-oxadiazol-2-yl)amino]benzimidazol-1-yl]-3-(1-hydroxyethyl)-2-pyridyl]-5-methyl-pyrazole-3-carbonitrile] | 42 | 14 | 9.6
Cc1nnc(Nc2cc3ncn(-c4ccc(C(C)O)c(-n5nc(C#N)cc5C)n4)c3cc2F)o1 (stereo not drawn) [Example 377, 1-[6-[6-fluoro-5-[(5-methyl-1,3,4-oxadiazol-2-yl)amino]benzimidazol-1-yl]-3-(1-hydroxyethyl)-2-pyridyl]-5-methyl-pyrazole-3-carbonitrile] | 43.2 | 47 | 31.5
Cc1cc(C#N)nn1-c1nc(-n2cnc3cc(Nc4ccc(F)c(F)c4F)c(F)cc32)ccc1C(C)O (stereo not drawn) [Example 378, 1-[6-[6-fluoro-5-(2,3,4-trifluoroanilino)benzimidazol-1-yl]-3-(1-hydroxyethyl)-2-pyridyl]-5-methyl-pyrazole-3-carbonitrile] | 21.7 | 79 | 32.5
Cc1cc(C#N)nn1-c1nc(-n2cnc3cc(F)c(Nc4ccc(F)c(F)c4F)cc32)ccc1C(C)O (stereo not drawn) [Example 379, 1-[6-[5-fluoro-6-(2,3,4-trifluoroanilino)benzimidazol-1-yl]-3-(1-hydroxyethyl)-2-pyridyl]-5-methyl-pyrazole-3-carbonitrile] | 0.4 | 1 | 0.2
Cc1cc(C#N)nn1-c1nc(-n2cnc3cc(NC(=O)C4(F)CC4)ccc32)ccc1C(C)O (stereo not drawn) [Example 380, N-[1-[6-(3-cyano-5-methyl-pyrazol-1-yl)-5-(1-hydroxyethyl)-2-pyridyl]benzimidazol-5-yl]-1-fluoro-cyclopropanecarboxamide] | 12.4 | 81 | 16.6
Cc1cc(C#N)nn1-c1nc(-n2cnc3cc(F)c(Nc4cc5c(nn4)CCC5)cc32)ccc1C(C)O (stereo not drawn) [Example 381, 1-[6-[6-(6,7-dihydro-5~{H}-cyclopenta[c]pyridazin-3-ylamino)-5-fluoro-benzimidazol-1-yl]-3-(1-hydroxyethyl)-2-pyridyl]-5-methyl-pyrazole-3-carbonitrile] | 195 | 55 | 32.7
Cc1cc(C#N)nn1-c1nc(-n2cnc3cc(Nc4cc5c(nn4)CCC5)c(F)cc32)ccc1C(C)O (stereo not drawn) [Example 382, 1-[6-[5-(6,7-dihydro-5~{H}-cyclopenta[c]pyridazin-3-ylamino)-6-fluoro-benzimidazol-1-yl]-3-(1-hydroxyethyl)-2-pyridyl]-5-methyl-pyrazole-3-carbonitrile] | 0.6 | 207 | 0.5
Cc1ccc(Nc2cc3ncn(-c4ccc([C@H](C)O)c(-n5nc(OC(F)F)cc5C)n4)c3cc2OC2COC2)nn1 [Example 383, (1S)-1-[2-[3-(difluoromethoxy)-5-methyl-pyrazol-1-yl]-6-[5-[(6-methylpyridazin-3-yl)amino]-6-(oxetan-3-yloxy)benzimidazol-1-yl]-3-pyridyl]ethanol] | 0.5 | 5 | 0.2
Cc1ccc(Nc2cc3ncn(-c4ccc([C@@H](C)O)c(-n5nc(OC(F)F)cc5C)n4)c3cc2OC2COC2)nn1 [Example 384, (1R)-1-[2-[3-(difluoromethoxy)-5-methyl-pyrazol-1-yl]-6-[5-[(6-methylpyridazin-3-yl)amino]-6-(oxetan-3-yloxy)benzimidazol-1-yl]-3-pyridyl]ethanol] | 80.2 | 215 | 41.3
Cc1nnc(Nc2cc3ncn(-c4ccc(C(C)O)c(-n5nc(C#N)cc5C)n4)c3cc2F)s1 (stereo not drawn) [Example 385, 1-[6-[6-fluoro-5-[(5-methyl-1,3,4-thiadiazol-2-yl)amino]benzimidazol-1-yl]-3-(1-hydroxyethyl)-2-pyridyl]-5-methyl-pyrazole-3-carbonitrile] | 2.5 | 22 | 2.8
Cc1ccc(Nc2ccc3c(c2)ncn3-c2ccc(C(C)O)c(-c3ccn(CC(F)(F)F)c(=O)c3F)n2)nn1 (stereo not drawn) [Example 386, 3-fluoro-4-[3-(1-hydroxyethyl)-6-[5-[(6-methylpyridazin-3-yl)amino]benzimidazol-1-yl]-2-pyridyl]-1-(2,2,2-trifluoroethyl)pyridin-2-one] | 1.2 | 69 | 1.2
Cc1ccc(Nc2cc3ncn(-c4ccc(C(C)O)c(-n5nc(C(F)F)cc5C(F)F)n4)c3cc2F)nn1 (stereo not drawn) [Example 387, 1-[2-[3,5-bis(difluoromethyl)pyrazol-1-yl]-6-[6-fluoro-5-[(6-methylpyridazin-3-yl)amino]benzimidazol-1-yl]-3-pyridyl]ethanol] | 1.8 | 462 | 2.3
Cc1ccc(Nc2cc3ncn(-c4ccc(C(C)O)c(-n5nc(C#N)cc5C)n4)c3cc2OC(F)F)nn1 (stereo not drawn) [Example 388, 1-[6-[6-(difluoromethoxy)-5-[(6-methylpyridazin-3-yl)amino]benzimidazol-1-yl]-3-(1-hydroxyethyl)-2-pyridyl]-5-methyl-pyrazole-3-carbonitrile] | 0.7 | 11 | 0.4
Cc1ncc(Nc2cc3ncn(-c4ccc([C@H](C)O)c(-n5nc(C#N)cc5C)n4)c3cc2F)cc1F [Example 391, 1-[6-[6-fluoro-5-[(5-fluoro-6-methyl-3-pyridyl)amino]benzimidazol-1-yl]-3-[(1S)-1-hydroxyethyl]-2-pyridyl]-5-methyl-pyrazole-3-carbonitrile] | 2 | 23 | 4.5
Cc1cc(C#N)nn1-c1nc(-n2cnc3cc(-c4cnc(N5CCCC5=O)o4)ccc32)ccc1C(C)O (stereo not drawn) [Example 392, 1-[3-(1-hydroxyethyl)-6-[5-[2-(2-oxopyrrolidin-1-yl)oxazol-5-yl]benzimidazol-1-yl]-2-pyridyl]-5-methyl-pyrazole-3-carbonitrile] | 4.5 | 10 | 2
Cc1ccc(Nc2ccc3c(c2)ncn3-c2ccc(C(C)O)c(OC3CNCC3(F)F)n2)nn1 (stereo not drawn) [Example 393, 1-[2-(4,4-difluoropyrrolidin-3-yl)oxy-6-[5-[(6-methylpyridazin-3-yl)amino]benzimidazol-1-yl]-3-pyridyl]ethanol] | 5.5 | 750 | 25.2
COc1cc2c(cc1Nc1cc3c(nn1)CCOC3)ncn2-c1ccc(C(C)O)c(-n2nc(C#N)cc2C)n1 (stereo not drawn) [Example 394, 1-[6-[5-(7,8-dihydro-5~{H}-pyrano[4,3-c]pyridazin-3-ylamino)-6-methoxy-benzimidazol-1-yl]-3-(1-hydroxyethyl)-2-pyridyl]-5-methyl-pyrazole-3-carbonitrile] | 0.6 | 13 | 0.3
Cc1ccc(Nc2ccc3c(c2)ncn3-c2ccc(C(C)O)c(-c3cc(OC(F)F)nnc3C)n2)nn1 (stereo not drawn) [Example 396, 1-[2-[6-(difluoromethoxy)-3-methyl-pyridazin-4-yl]-6-[5-[(6-methylpyridazin-3-yl)amino]benzimidazol-1-yl]-3-pyridyl]ethanol] | 5.6 | 1120 | 13.5
COc1cc(C(F)F)nn1-c1nc(-n2cnc3ccc(Nc4ccc(C)nn4)cc32)ccc1C(C)O (stereo not drawn) [Example 397, 1-[2-[3-(difluoromethyl)-5-methoxy-pyrazol-1-yl]-6-[6-[(6-methylpyridazin-3-yl)amino]benzimidazol-1-yl]-3-pyridyl]ethanol] | 172 | 37 | 20.5
COc1cc(C(F)F)nn1-c1nc(-n2cnc3cc(Nc4ccc(C)nn4)ccc32)ccc1C(C)O (stereo not drawn) [Example 398, 1-[2-[3-(difluoromethyl)-5-methoxy-pyrazol-1-yl]-6-[5-[(6-methylpyridazin-3-yl)amino]benzimidazol-1-yl]-3-pyridyl]ethanol] | 2 | 271 | 3.9
Cc1ccc(Nc2ccc3c(c2)ncn3-c2ccc(C(C)O)c(-c3cn(CC(F)CF)nc3C)n2)nn1 (stereo not drawn) [Example 399, 1-[2-[1-(2,3-difluoropropyl)-3-methyl-pyrazol-4-yl]-6-[5-[(6-methylpyridazin-3-yl)amino]benzimidazol-1-yl]-3-pyridyl]ethanol] | 1 | 39 | 0.6
